Results as given in PubChem BioAssay (NCI).
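Cells were grown in 96-well plates and exposed to each compound for 48 hours at five concentrations; endpoints were interpolated linearly between bracketing concentrations, or set to the highest concentration if not reached. GI50 = concentration required for 50% inhibition of growth. TGI denotes the concentration required for complete inhibition of growth.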

Key:
Experiment in all cases: NCI-60 cell line screen, 48 h
[1] = test system: 786-0 renal
[2] = test system: A498 renal
[3] = test system: A549 NSCLC
[4] = test system: ACHN renal
[5] = test system: BT-549 breast
[6] = test system: CAKI-1 renal
[7] = test system: CCRF-CEM leukemia
[8] = test system: COLO 205 colon
[9] = test system: DU-145 prostate
[10] = test system: EKVX NSCLC
[11] = test system: HCC-2998 colon
[12] = test system: HCT-116 colon
[13] = test system: HCT-15 colon
[14] = test system: HL-60(TB) leukemia
[15] = test system: HOP-62 NSCLC
[16] = test system: HOP-92 NSCLC
[17] = test system: HS 578T breast
[18] = test system: HT29 colon
[19] = test system: IGROV1 ovarian
[20] = test system: K-562 leukemia
[21] = test system: KM12 colon
[22] = test system: LOX IMVI melanoma
[23] = test system: M14 melanoma
[24] = test system: MALME-3M melanoma
[25] = test system: MCF7 breast
[26] = test system: MDA-MB-231 breast
[27] = test system: MDA-MB-435
[28] = test system: MOLT-4 leukemia
[29] = test system: NCI-H226 lung
[30] = test system: NCI-H23 lung
[31] = test system: NCI-H460 lung
[32] = test system: NCI-H522 lung
[33] = test system: NCI/ADR-RES ovarian
[34] = test system: OVCAR-3 ovarian
[35] = test system: OVCAR-4 ovarian
[36] = test system: OVCAR-5 ovarian
[37] = test system: OVCAR-8 ovarian
[38] = test system: PC-3 prostate
[39] = test system: RPMI-8226 leukemia
[40] = test system: RXF 393 renal
[41] = test system: SF-268 CNS
[42] = test system: SF-295 CNS
[43] = test system: SF-539 CNS
[44] = test system: SK-MEL-2 melanoma
[45] = test system: SK-MEL-28 melanoma
[46] = test system: SK-MEL-5 melanoma
[47] = test system: SK-OV-3 ovarian
[48] = test system: SN12C renal
[49] = test system: SNB-19 CNS
[50] = test system: SNB-75 CNS
[51] = test system: SR leukemia
[52] = test system: SW-620 colon
[53] = test system: T-47D breast
[54] = test system: TK-10 renal
[55] = test system: U251 CNS
[56] = test system: UACC-257 melanoma
[57] = test system: UACC-62 melanoma
[58] = test system: UO-31 renal

Q: What does the source list for `COc1ccc2c(c1)C(=O)c1c-2n(CCCNCCO)c(=O)c2ccccc12`?
A: GI50 [1]: 67.8 nM; TGI [1]: 568 nM; GI50 [2]: 80.7 nM; TGI [2]: 520 nM; GI50 [3]: 62.6 nM; TGI [3]: 310 nM; GI50 [4]: 39.7 nM; TGI [4]: 240 nM; GI50 [5]: 127 nM; TGI [5]: 672 nM; GI50 [6]: 107 nM; TGI [6]: 659 nM; GI50 [7]: 22.7 nM; TGI [7]: 1050 nM; GI50 [8]: 74.6 nM; TGI [8]: 1650 nM; GI50 [9]: 46.9 nM; TGI [9]: 331 nM; GI50 [10]: 349 nM; TGI [10]: 1500 nM; GI50 [11]: 109 nM; TGI [11]: 479 nM; GI50 [12]: 79.9 nM; TGI [12]: 534 nM; GI50 [13]: 154 nM; TGI [13]: 1180 nM; GI50 [14]: 169 nM; TGI [14]: 1690 nM; GI50 [15]: 57.5 nM; TGI [15]: 462 nM; GI50 [16]: 87 nM; TGI [16]: 531 nM; GI50 [17]: 262 nM; TGI [17]: 2240 nM; GI50 [18]: 76.4 nM; TGI [18]: 1760 nM; GI50 [19]: 150 nM; TGI [19]: 2330 nM; GI50 [20]: 121 nM; GI50 [21]: 200 nM; TGI [21]: 1240 nM; GI50 [22]: 47.3 nM; TGI [22]: 224 nM; GI50 [23]: 320 nM; TGI [23]: 1480 nM; GI50 [24]: 178 nM; TGI [24]: 1240 nM; GI50 [25]: < 11.5 nM; TGI [25]: 434 nM; GI50 [26]: 543 nM; TGI [26]: 2330 nM; GI50 [27]: 322 nM; TGI [27]: 1620 nM; GI50 [28]: < 18.2 nM; TGI [28]: 5280 nM; GI50 [29]: 486 nM; TGI [29]: 2310 nM; GI50 [30]: 120 nM; TGI [30]: 563 nM; TGI [31]: 137 nM; GI50 [32]: 17.4 nM; TGI [32]: 95.5 nM; GI50 [33]: 807 nM; TGI [33]: 3380 nM; GI50 [34]: 331 nM; TGI [34]: 1410 nM; GI50 [35]: 301 nM; TGI [35]: 2230 nM; GI50 [36]: 346 nM; TGI [36]: 1110 nM; GI50 [37]: 90.8 nM; TGI [37]: 1900 nM; GI50 [38]: 272 nM; TGI [38]: 2290 nM; GI50 [39]: 72.7 nM; TGI [39]: 594 nM; GI50 [40]: 963 nM; TGI [40]: 3950 nM; GI50 [41]: 120 nM; TGI [41]: 1430 nM; GI50 [42]: 61.7 nM; TGI [42]: 425 nM; GI50 [43]: 76.4 nM; TGI [43]: 408 nM; GI50 [44]: 734 nM; TGI [44]: 2570 nM; GI50 [45]: 897 nM; TGI [45]: 2490 nM; GI50 [46]: 63.4 nM; TGI [46]: 202 nM; GI50 [47]: 218 nM; TGI [47]: 1420 nM; GI50 [48]: 118 nM; TGI [48]: 1420 nM; GI50 [49]: 117 nM; TGI [49]: 1060 nM; GI50 [50]: 261 nM; TGI [50]: 1250 nM; GI50 [51]: < 20.7 nM; TGI [51]: 1800 nM; GI50 [52]: 53 nM; TGI [52]: 1460 nM; GI50 [53]: 56 nM; TGI [53]: 1620 nM; GI50 [54]: 316 nM; TGI [54]: 3030 nM; GI50 [55]: 82.1 nM; TGI [55]: 1170 nM; GI50 [56]: 541 nM; TGI [56]: 2130 nM; GI50 [57]: 312 nM; TGI [57]: 1850 nM; GI50 [58]: 90.4 nM; TGI [58]: 618 nM

Q: Which results are given for `NC(=O)c1cccc(N2Cc3ccccc3OC3=C2C(=O)c2c(O)ccc(O)c2C3=O)c1`?
A: GI50 [1]: 276 nM; TGI [1]: 986 nM; GI50 [2]: 2640 nM; TGI [2]: 7210 nM; GI50 [3]: 2830 nM; TGI [3]: 10100 nM; GI50 [4]: 165 nM; TGI [4]: 485 nM; GI50 [5]: 944 nM; TGI [5]: 2410 nM; GI50 [6]: 301 nM; TGI [6]: 1130 nM; GI50 [7]: 120 nM; TGI [7]: 595 nM; GI50 [8]: 112 nM; TGI [8]: 298 nM; GI50 [9]: 517 nM; TGI [9]: 1640 nM; GI50 [10]: 1260 nM; TGI [10]: 4090 nM; GI50 [11]: 1960 nM; TGI [11]: 3640 nM; GI50 [12]: 267 nM; TGI [12]: 963 nM; GI50 [13]: 224 nM; TGI [13]: 724 nM; GI50 [14]: 188 nM; TGI [14]: 496 nM; GI50 [15]: 2140 nM; TGI [15]: 5960 nM; GI50 [16]: 270 nM; TGI [16]: 752 nM; GI50 [17]: 3280 nM; TGI [17]: 30800 nM; GI50 [18]: 302 nM; TGI [18]: 1150 nM; GI50 [19]: 1190 nM; TGI [19]: 3010 nM; GI50 [20]: 164 nM; TGI [20]: 1330 nM; GI50 [21]: 1880 nM; TGI [21]: 4880 nM; GI50 [22]: 284 nM; TGI [22]: 897 nM; GI50 [23]: 554 nM; TGI [23]: 1970 nM; GI50 [24]: 194 nM; TGI [24]: 614 nM; GI50 [25]: 327 nM; TGI [25]: 1730 nM; GI50 [26]: 342 nM; TGI [26]: 1040 nM; GI50 [27]: 1080 nM; TGI [27]: 2860 nM; GI50 [28]: 235 nM; TGI [28]: 1090 nM; GI50 [29]: 2040 nM; TGI [29]: 5950 nM; GI50 [30]: 1590 nM; TGI [30]: 4500 nM; GI50 [31]: 2340 nM; TGI [31]: 6120 nM; GI50 [32]: 68.2 nM; TGI [32]: 256 nM; GI50 [33]: 2130 nM; TGI [33]: 35600 nM; GI50 [34]: 233 nM; TGI [34]: 646 nM; GI50 [35]: 312 nM; TGI [35]: 1130 nM; GI50 [36]: 1280 nM; TGI [36]: 2870 nM; GI50 [37]: 304 nM; TGI [37]: 1500 nM; GI50 [38]: 1280 nM; TGI [38]: 4560 nM; GI50 [39]: 319 nM; TGI [39]: 1360 nM; GI50 [40]: 189 nM; TGI [40]: 433 nM; GI50 [41]: 1340 nM; TGI [41]: 3910 nM; GI50 [42]: 2210 nM; TGI [42]: 5990 nM; GI50 [43]: 1250 nM; TGI [43]: 2630 nM; GI50 [44]: 1960 nM; TGI [44]: 4790 nM; GI50 [45]: 433 nM; TGI [45]: 1500 nM; GI50 [46]: 1760 nM; TGI [46]: 3840 nM; GI50 [47]: 3510 nM; TGI [47]: 13000 nM; GI50 [48]: 1440 nM; TGI [48]: 3400 nM; GI50 [49]: 3000 nM; TGI [49]: 10800 nM; GI50 [50]: 1490 nM; TGI [50]: 6670 nM; GI50 [51]: 88 nM; TGI [51]: 912 nM; GI50 [52]: 275 nM; TGI [52]: 1030 nM; GI50 [53]: 213 nM; TGI [53]: 746 nM; GI50 [54]: 221 nM; TGI [54]: 682 nM; GI50 [55]: 1510 nM; TGI [55]: 4590 nM; GI50 [56]: 531 nM; TGI [56]: 1730 nM; GI50 [57]: 319 nM; TGI [57]: 1140 nM; GI50 [58]: 138 nM; TGI [58]: 344 nM
